Data set [1] in a line: Cytotoxicity against human HuH7 cells. The class given is cell-based, Huh-7.
Data set [2] relates to Hepatitis B virus. Put plainly: Inhibition of HBV in Huh7 cells by ELISA. The format is functional, organism-based. As to conditions: Huh-7. In general terms: ELISA stands for enzyme-linked immunosorbent assay.
Data set [3] can be described thus: Cytotoxicity against mouse AML-12 cells after 48 hrs by MTT assay. The class given is cell-based. Background: Formazan colour is commonly taken as a measure of viable cells.
A short description of data set [4]: Cytotoxicity against human HepDES19 cells after 48 hrs by MTT assay. The format is cell-based.
In data set [5] the test system is Hepatitis B virus. Put plainly: Inhibition of HBV DNA replication in AML-12 cells after 48 hrs by dot blot analysis. The class given is functional, organism-based. As to conditions: AML12, 48 h.
The subject of data set [6] is Hepatitis B virus. Put plainly: Inhibition of HBV DNA replication in HepDES19 cells after 48 hrs by dot blot analysis. The class given is functional, organism-based. As to conditions: HepDES19, 48 h.
The subject of data set [7] is Hepatitis B virus. Kind of data set: Inhibition of HBV DNA replication in HepG2 cells by southern blot analysis. The format is functional, organism-based.
Data set [8] concerns Hepatitis B virus. Put plainly: Inhibition of HBV antigen secretion. The format is functional, organism-based.
Data set [9] relates to Hepatitis B virus. Put plainly: Inhibition of HBV virions secretion. The class given is functional, organism-based.
A short description of data set [10]: Selectivity index, ratio of cytotoxicity against human HepG2.2.15 cells to IC50 for HBV DNA replication in HepG2.2.15 cells. The format is toxicity, cell-based. As to conditions: read-out: Selectivity Index.
For data set [11], the system named is Hepatitis B virus. Put plainly: Inhibition of HBV DNA replication in HepG2.2.15 cells. The format is functional, organism-based.
Data set [12] in a line: Selectivity index, ratio of cytotoxicity against human HepG2.2.15 cells to IC50 for HBV antigen secretion in HepG2.2.15 cells. The format is toxicity, cell-based. As to conditions: read-out: Selectivity Index.
The test system of data set [13] is Hepatitis B virus. Put plainly: Inhibition of HBV antigen secretion in HepG2.2.15 cells. The format is functional, organism-based.
Data set [14] has as its system Hepatitis B virus. Put plainly: Inhibition of HBV DNA replication in HepAD38 cells. The format is functional, organism-based.
Data set [15] in a line: Cytotoxicity against human HepAD38 cells. The format is cell-based. As to conditions: read-out: TC50 (the source's name).
Data set [16] in a line: Ratio of CC50 for human HepG2.2.15 cells to IC50 for HBV DNA replication in HepG2.2.15 cells. Also on record: species or system HepG2 2.2.15.
The nature of data set [17]: Cytotoxicity against human HepG2.2.15 cells assessed as cell viability. As to conditions: read-out: TC50 (the source's name). The class given is cell-based, HepG2 2.2.15.
Data set [18] deals with Hepatitis B virus. Put plainly: Inhibition of HBV DNA replication. The format is functional, organism-based.
Data set [19] can be described thus: Cytotoxicity against human HepDE19 cells after 7 days by MTT assay. The format is cell-based.
Data set [20] has as its system Hepatitis B virus. Put plainly: Inhibition of HBV antigen secretion in HepDE19 cell after 7 days by ELISA. The class given is functional, organism-based. As to conditions: HepDE19, 168 h.

`O=C1OC(OCc2ccccc2)=N/C1=C\c1ccccc1`: the CC50 in data set [1] was over 50 µM. Besides, in the data set on Hepatitis B virus [2], a half-maximal effect (EC50) was put at 5.4 µM.
Take `CCC(C)NS(=O)(=O)c1ccc(F)c(C(=O)NCc2ccc(F)c(F)c2)c1` (stereo unspecified): the CC50 at 48 h in data set [3] and in [4] was over 50 µM each time. Moreover, the results for the EC50 in the data set on Hepatitis B virus [5] and in the data set on Hepatitis B virus [6] were 0.3 µM and 0.1 µM, respectively.
`CCOC(=O)C1=C(CN2CCOCC2)NC(c2nccs2)=NC1c1ccc(F)cc1Br` (stereo unspecified) yielded an IC50 in the data set on Hepatitis B virus [7] of 0.012 µM.
As for `Clc1cc2nc(N3CCN(c4ccccn4)CC3)[nH]c2cc1Cl`, the EC50 is 1.5 µM in the data set with Hepatitis B virus [8] and 0.6 µM with Hepatitis B virus [9].
In the case of `CCOC(=O)c1cc2cc(OC)c(O)c(CN3C=NCC3)c2nc1C[S+]([O-])c1ccc(F)c(F)c1` (stereo unspecified), the selectivity ratio came out at 61.6 in [10] and 11.3 in [12]. Besides, the IC50 in the data set on Hepatitis B virus [11] is 2.6 µM; in the data set with Hepatitis B virus [13] it was 14.2 µM.
Regarding `CCOC(=O)c1cc2cc(OC)c(O)c(CN3CCCC3)c2nc1CSc1ccccc1`, the selectivity ratio in data set [10] was determined as 2.8. In the data set on Hepatitis B virus [11], this compound registered an IC50 of 36.8 µM.
Consider `O=C(N/C(C(=O)N1CCCCC1)=C(/Cl)c1ccccc1)c1ccccc1`, for which, in the data set on Hepatitis B virus [14], the EC50 turned out to be 1.2 µM and the EC90 was found to be 13 µM. In addition, the CC50 in [15] is over 81 µM.
`CN(C)C(=O)c1ccc2c(c1)nc(-c1nccs1)n2C` yielded an IC50 in the data set with Hepatitis B virus [11] of 1.1 µM. The “Ratio CC50/IC50” value in data set [16] is over 90.
Regarding `O=C(NCc1ccccc1)c1ccc(Cl)c(S(=O)(=O)N2CCCCCC2)c1`, the CC50 at 48 h in data set [3] and in data set [4] was over 50 µM each time. Besides, the EC50 is 1.7 µM in the data set on Hepatitis B virus [5] and 1.6 µM in the data set on Hepatitis B virus [6].
In the data set with Hepatitis B virus [14], `COc1ccccc1/C(Br)=C(\NC(=O)c1ccc([N+](=O)[O-])cc1)C(=O)N1CCCCC1` returned an EC50 of 0.13 µM and an EC90 of 0.92 µM. Moreover, the CC50 in data set [15] was over 61 µM.
Regarding `CCOC(=O)C1=C(C)NC(c2ncccc2F)=NC1c1ccc(F)cc1Cl` (stereo unspecified), the IC50 with Hepatitis B virus [11] is 0.15 µM. Further, the CC50 in [17] was 50 µM.
Take `Cc1cc(C)n2[nH]c(=S)nc2n1`: in data set [1], the CC50 was over 50 µM. This compound also had an EC50 in the data set with Hepatitis B virus [2] of 0.12 µM.
In the case of `O=C(NCc1ccc(F)c(F)c1)c1cc(S(=O)(=O)NC2CCCC2)ccc1F`, the CC50 at 48 h in data set [3] and in data set [4] was over 50 µM each time. Besides, the EC50 with Hepatitis B virus [5] stood at 0.39 µM; in the data set with Hepatitis B virus [6], 0.14 µM.
Turning to `CC(C)Cc1sc(-c2nccs2)nc1C(=O)NCc1ccc(F)cc1`, the midpoint of inhibition in the data set on Hepatitis B virus [18], the IC50, lay at 0.14 µM.
For the compound `CCCCC/N=C(\c1ccc(=O)n(CCCCC)c1)c1ccc(OC)cc1O`, the IC50 in the data set with Hepatitis B virus [8] worked out at 5 µM; in the data set with Hepatitis B virus [18] it was 30 µM.
In turn, `O=C(CN(c1cc(C(F)(F)F)ccc1Cl)S(=O)(=O)c1ccccc1)NCc1ccncc1` yielded a CC50 at 168 h in data set [19] of over 50 µM. The compound also showed an EC50 with Hepatitis B virus [20] of 4.55 µM.
For `COc1cc2nc3c(cc2c(Cn2ccnc2C)c1O)CSc1cc(F)ccc1-3`, in data set [10], the selectivity ratio was 60.3. Besides, 1.7 µM corresponded to half-maximal inhibition in the data set with Hepatitis B virus [11] (IC50).
With `CCOC(=O)C1=C(C)NC(c2nccs2)=N[C@H]1c1ccc(F)cc1Cl`, inhibition with Hepatitis B virus [11] was half-maximal at 0.03 µM (IC50). In addition, the CC50 in [17] was found to be 25 µM.
On to `Cc1nc2cc(NC(=O)c3ccc(S(=O)(=O)N(C)Cc4ccccc4)cc3)ccc2s1`, for which the CC50 at 168 h in data set [19] is over 2.57 µM. Moreover, the response with Hepatitis B virus [20] was half-maximal at 0.35 µM (EC50).

As a reminder, the EC50 is the concentration giving half of the maximal effect. A word on the IC50: it is the concentration at which inhibition is half-maximal. Read a low IC50 as greater potency. In general, EC90 refers to the point of the concentration-response curve where the effect stands at 90%. Read a low EC90 as an effect from little substance.

The values above are taken from ChEMBL document CHEMBL3739304, “Non-nucleoside anti-HBV agents: advances in structural optimization and mechanism of action investigations” (Medchemcomm, 2015).
